According to the NIST ThermoML archive (doi:10.1016/j.fluid.2007.04.023):

Conditions: Liquid, Vibrating tube method

CCCCCCCCCCCCC [tridecane]
Conditions | mass density [kg/m3]
313.01 K, 1023 kPa | 743.49
313.01 K, 2030 kPa | 744.27
313.01 K, 3025 kPa | 745.05
313.01 K, 4027 kPa | 745.74
313.01 K, 5014 kPa | 746.51
313.01 K, 6024 kPa | 747.18
313.01 K, 7021 kPa | 747.95
313.01 K, 8036 kPa | 748.69
313.01 K, 9019 kPa | 749.41
313.01 K, 10018 kPa | 750.14
313.01 K, 11030 kPa | 750.86
313.01 K, 12006 kPa | 751.51
313.01 K, 13017 kPa | 752.24
313.01 K, 14035 kPa | 752.95
313.01 K, 15021 kPa | 753.59
313.01 K, 16019 kPa | 754.27
313.01 K, 17019 kPa | 754.94
313.01 K, 18024 kPa | 755.61
313.01 K, 19025 kPa | 756.27
313.01 K, 20043 kPa | 756.91
313.01 K, 21011 kPa | 757.52
313.01 K, 22020 kPa | 758.16
313.01 K, 23018 kPa | 758.79
313.01 K, 24004 kPa | 759.44
313.01 K, 25036 kPa | 760.12
322.92 K, 1017 kPa | 736.15
322.92 K, 2006 kPa | 736.94
322.92 K, 3025 kPa | 737.83
322.92 K, 4021 kPa | 738.62
322.92 K, 5021 kPa | 739.42
322.92 K, 6043 kPa | 740.18
322.92 K, 7018 kPa | 740.9
322.92 K, 8022 kPa | 741.72
322.92 K, 9008 kPa | 742.44
322.92 K, 10012 kPa | 743.18
322.92 K, 11015 kPa | 743.93
322.92 K, 12006 kPa | 744.71
322.92 K, 13030 kPa | 745.38
322.92 K, 14010 kPa | 746.12
322.92 K, 15026 kPa | 746.81
322.92 K, 16024 kPa | 747.53
322.92 K, 17016 kPa | 748.22
322.92 K, 18010 kPa | 748.89
322.92 K, 19007 kPa | 749.56
322.92 K, 20023 kPa | 750.22
322.92 K, 21020 kPa | 750.92
322.92 K, 22010 kPa | 751.57
322.92 K, 23040 kPa | 752.26
322.92 K, 24006 kPa | 752.95
322.92 K, 25006 kPa | 753.6
332.78 K, 1015 kPa | 729.19
332.78 K, 2020 kPa | 730.06
332.78 K, 3022 kPa | 730.83
332.78 K, 4016 kPa | 731.63
332.78 K, 5020 kPa | 732.47
332.78 K, 6016 kPa | 733.27
332.78 K, 7006 kPa | 734.09
332.78 K, 8018 kPa | 734.9
332.78 K, 9013 kPa | 735.71
332.78 K, 10008 kPa | 736.52
332.78 K, 11016 kPa | 737.3
332.78 K, 12007 kPa | 738.05
332.78 K, 13012 kPa | 738.79
332.78 K, 14021 kPa | 739.55
332.78 K, 15011 kPa | 740.26
332.78 K, 16020 kPa | 741.03
332.78 K, 17015 kPa | 741.74
332.78 K, 18005 kPa | 742.47
332.78 K, 19017 kPa | 743.19
332.78 K, 20014 kPa | 743.89
332.78 K, 21016 kPa | 744.66
332.78 K, 22046 kPa | 745.35
332.78 K, 22994 kPa | 745.97
332.78 K, 24032 kPa | 746.67
332.78 K, 25030 kPa | 747.38
342.64 K, 1022 kPa | 722.03
342.64 K, 2014 kPa | 722.93
342.64 K, 3025 kPa | 723.84
342.64 K, 4021 kPa | 724.7
342.64 K, 5020 kPa | 725.59
342.64 K, 6020 kPa | 726.44
342.64 K, 7008 kPa | 727.27
342.64 K, 8026 kPa | 728.15
342.64 K, 9007 kPa | 728.98
342.64 K, 10010 kPa | 729.81
342.64 K, 11012 kPa | 730.63
342.64 K, 12014 kPa | 731.46
342.64 K, 13011 kPa | 732.27
342.64 K, 14008 kPa | 733.03
342.64 K, 15029 kPa | 733.84
342.64 K, 16006 kPa | 734.58
342.64 K, 17016 kPa | 735.35
342.64 K, 18019 kPa | 736.09
342.64 K, 19006 kPa | 736.85
342.64 K, 20001 kPa | 737.59
342.64 K, 21023 kPa | 738.34
342.64 K, 22008 kPa | 739.06
342.64 K, 23005 kPa | 739.79
342.64 K, 24032 kPa | 740.52
342.64 K, 25024 kPa | 741.14
352.47 K, 1013 kPa | 714.88
352.47 K, 2022 kPa | 715.88
352.47 K, 3010 kPa | 716.8
352.47 K, 4020 kPa | 717.71
352.47 K, 5019 kPa | 718.65
352.47 K, 6011 kPa | 719.55
352.47 K, 7017 kPa | 720.47
352.47 K, 8014 kPa | 721.35
352.47 K, 9022 kPa | 722.24
352.47 K, 10031 kPa | 723.11
352.47 K, 11010 kPa | 723.98
352.47 K, 12003 kPa | 724.82
352.47 K, 13024 kPa | 725.71
352.47 K, 14013 kPa | 726.54
352.47 K, 15007 kPa | 727.34
352.47 K, 16016 kPa | 728.16
352.47 K, 17007 kPa | 728.94
352.47 K, 18020 kPa | 729.77
352.47 K, 19011 kPa | 730.53
352.47 K, 20013 kPa | 731.29
352.47 K, 21032 kPa | 732.07
352.47 K, 22020 kPa | 732.84
352.47 K, 23020 kPa | 733.6
352.47 K, 24021 kPa | 734.36
352.47 K, 25024 kPa | 735.14
362.25 K, 1020 kPa | 707.72
362.25 K, 2026 kPa | 708.74
362.25 K, 3018 kPa | 709.77
362.25 K, 4006 kPa | 710.71
362.25 K, 5021 kPa | 711.73
362.25 K, 6019 kPa | 712.7
362.25 K, 7029 kPa | 713.67
362.25 K, 8017 kPa | 714.54
362.25 K, 9011 kPa | 715.51
362.25 K, 10011 kPa | 716.42
362.25 K, 11021 kPa | 717.35
362.25 K, 12018 kPa | 718.24
362.25 K, 13014 kPa | 719.11
362.25 K, 14000 kPa | 719.97
362.25 K, 15017 kPa | 720.85
362.25 K, 16026 kPa | 721.7
362.25 K, 17019 kPa | 722.52
362.25 K, 18034 kPa | 723.36
362.25 K, 19016 kPa | 724.17
362.25 K, 20004 kPa | 725
362.25 K, 21015 kPa | 725.8
362.25 K, 22022 kPa | 726.63
362.25 K, 23008 kPa | 727.42
362.25 K, 24034 kPa | 728.22
362.25 K, 25010 kPa | 729.02
